Reference: US12187721B2, “Protein tyrosine phosphatase inhibitors” (Array BioPharma Inc., priority 2018, dated 2025)
Read-outs that look alike come from different tables or passages of the source.

Target: T1, full-length SHP2 (His6-tagged SHP2(2-527)) (Homo sapiens, UniProt Q06124)
T1 construct: His6-tagged SHP2(2-527); His6; made in house; host or cells: E. coli
Assay: SHP2 Enzymatic Assay (fluorescence intensity kinetic assay, DiFMUP hydrolysis)
Type: biochemical
Experimental: A fluorescence intensity kinetic assay was configured for full-length SHP2 that monitors the amount of 6,8-difluoro-7-hydroxy-4-methylcoumarin (“DiFMU”) formed upon hydrolysis of 6,8-difluoro-4-methylumbelliferyl phosphate (“DiFMUP”) by SHP2. Assay mixtures consisted of 25 mM K^+HEPES, pH 7.4, 0.01% Triton X-100, 1 mM DTT, 50 mM KCl, 100 μg/mL bovine γ-globulin, 50 μM DiFMUP, 1 μM SHP2 activating peptide (LN(pY)IDLDLV(dPEG8)LST(pY)ASINFQK-amide), 1 nM full-length SHP2 (His6-tagged SHP2(2-527), recombinantly expressed in E. coli and purified in-house) and 2% dimethylsulfoxide (“DMSO”) (from compound). […] The assay was run in 384-well, polystyrene, low-volume, non-treated, black microtiter plates (Costar 4511) in a final volume of 20 μL. Low control wells lacked enzyme. The assays were initiated by the addition of a mixture of SHP2 and the activating peptide, and following a 15 second mix on an orbital shaker, were read in kinetic mode for 15 minutes (30 seconds/cycle) at ambient temperature on a PerkinElmer EnVision microplate reader (λEx=355 nm, λEm=460 nm). Initial velocities (slopes of the tangents at t=0) were estimated from exponential fits to the slightly nonlinear progress curves and then were converted to percent of control (“POC”) using the following equation:
[formula] • Where: Xmax Average Uninhibited Controls • Xmin Average Background A 4-parameter logistic model was the fit to the POC data for each compound. From that fit, the IC50 was estimated and is defined as the concentration of compound at which the curve crosses 50 POC.
The reported IC50 in Table 1 may be from a single assay or the mean of multiple assays.

[1] = full-length SHP2 with 1 μM activating peptide, 50 μM DiFMUP, single assay or mean of multiple assays, read-out: Biological Example 1 IC50

T1 sequence (Q06124 2-527): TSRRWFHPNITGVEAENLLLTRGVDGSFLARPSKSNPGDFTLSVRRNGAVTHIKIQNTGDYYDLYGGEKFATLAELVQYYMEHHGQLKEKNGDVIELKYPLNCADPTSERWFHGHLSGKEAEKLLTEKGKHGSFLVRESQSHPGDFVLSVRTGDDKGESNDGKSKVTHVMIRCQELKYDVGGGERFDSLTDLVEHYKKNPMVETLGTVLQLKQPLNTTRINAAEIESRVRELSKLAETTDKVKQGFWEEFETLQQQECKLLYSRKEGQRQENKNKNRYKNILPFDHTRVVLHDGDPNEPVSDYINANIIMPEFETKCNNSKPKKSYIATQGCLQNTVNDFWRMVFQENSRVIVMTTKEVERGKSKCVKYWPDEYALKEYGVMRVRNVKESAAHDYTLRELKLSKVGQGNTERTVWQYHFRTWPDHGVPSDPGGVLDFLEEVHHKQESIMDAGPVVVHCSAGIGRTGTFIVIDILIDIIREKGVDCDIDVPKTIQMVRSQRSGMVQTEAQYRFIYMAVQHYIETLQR

With `Cc1c(Sc2ccc3nc(N4CCC5(CC4)CO[C@@H](C)[C@H]5N)cnc3n2)ccnc1N` [Example 72, (3S,4S)-8-(6-((2-amino-3-methylpyridin-4-yl)thio)pyrido[2,3-b]pyrazin-2-yl)-3-methyl-2-oxa-8-azaspiro[4,5]decan-4-amine] the IC50 was 0.149 µM.
In the case of `Cc1nccc(Sc2ccc3nc(N4CCC(C)(N)CC4)cnc3n2)c1Cl` [Example 94, 1-(6-((3-chloro-2-methylpyridin-4-yl)thio)pyrido[2,3-b]pyrazin-2-yl)-4-methylpiperidin-4-amine], the IC50 is reported as 0.049 µM.
`Cc1nccc(Sc2ccc3nc(N4CCC5(CC4)Cc4cc(O)ccc4[C@H]5N)cnc3n2)c1Cl` [Example 156, (S)-1-amino-1′-(6-((3-chloro-2-methylpyridin-4-yl)thio)pyrido[2,3-b]pyrazin-2-yl)-1,3-dihydrospiro[indene-2,4′-piperidin]-5-ol] showed an IC50 of 0.032 µM.
For `COc1nccc(Sc2ccc3nc(N4CCC(C)(N)CC4)cnc3n2)c1Cl` [Example 20, 1-(6-((3-chloro-2-methoxypyridin-4-yl)thio)pyrido[2,3-b]pyrazin-2-yl)-4-methylpiperidin-4-amine], the IC50 was 0.36 µM.
Work on `N[C@@H]1c2cccnc2CC12CCN(c1cnc3nc(Sc4ccnc(N5CCC(O)CC5)c4Cl)ccc3n1)CC2` [Example 209, (S)-1-(4-((2-(5-amino-5,7-dihydrospiro[cyclopenta[b]pyridine-6,4′-piperidin]-1′-yl)pyrido[2,3-b]pyrazin-6-yl)thio)-3-chloropyridin-2-yl)piperidin-4-ol] yielded an IC50 of 0.04 µM.
`Nc1nccc(Sc2ccc3nc(N4CCC(N)(Cc5ccccc5)CC4)cnc3n2)c1Cl` [Example 181, 4-((2-(4-amino-4-benzylpiperidin-1-yl)pyrido[2,3-b]pyrazin-6-yl)thio)-3-chloropyridin-2-amine] gave an IC50 of 0.075 µM.
Work on `C[C@@H]1OCC2(CCN(c3cnc4nc(Sc5ccnc(N)c5F)ccc4n3)CC2)[C@@H]1N` [Example 175, (3S,4S)-8-(6-((2-amino-3-fluoropyridin-4-yl)thio)pyrido[2,3-b]pyrazin-2-yl)-3-methyl-2-oxa-8-azaspiro[4.5]decan-4-amine] yielded an IC50 of 1.23 µM.
`CC1(N)CCN(c2cnc3nc(Sc4ccnc5c4CCN5)ccc3n2)CC1` [Example 196, 1-(6-((2,3-dihydro-1H-pyrrolo[2,3-b]pyridin-4-yl)thio)pyrido[2,3-b]pyrazin-2-yl)-4-methylpiperidin-4-amine] gave an IC50 of 0.563 µM.
`Nc1nccc(Sc2ccc3nc(N4CCC5(CC4)Cc4c(Cl)cccc4[C@@H]5N)cnc3n2)c1Cl` [Example 220, (R)-1′-(6-((2-amino-3-chloropyridin-4-yl)thio)pyrido[2,3-b]pyrazin-2-yl)-4-chloro-1,3-dihydrospiro[indene-2,4′-piperidin]-1-amine] gave an IC50 of 0.096 µM.
`Nc1nccc(Sc2ccc3nc(N4CCC5NCC5C4)cnc3n2)c1Cl` (centres unmarked) [Example 103, 4-((2-(3,7-diazabicyclo[4.2.0]octan-3-yl)pyrido[2,3-b]pyrazin-6-yl)thio)-3-chloropyridin-2-amine] showed an IC50 of 0.079 µM.
`CC1(N)CCN(c2cnc3nc(-c4cccc(Cl)c4C(F)(F)F)ccc3n2)CC1` [Example 11, 1-(6-(3-chloro-2-(trifluoromethyl)phenyl)pyrido[2,3-b]pyrazin-2-yl)-4-methylpiperidin-4-amine] showed an IC50 of 2.3 µM.
`Nc1nccc(Sc2ccc3nc(N4CC5CCC(N)C5C4)cnc3n2)c1Cl` (centres unmarked) [Example 100, 2-(6-((2-amino-3-chloropyridin-4-yl)thio)pyrido[2,3-b]pyrazin-2-yl)octahydrocyclopenta[c]pyrrol-4-amine] showed an IC50 of 0.121 µM.
Work on `CC1(CN)CCN(c2cnc3nc(-c4cccc(Cl)c4Cl)ccc3n2)CC1` [Example 27, (1-(6-(2,3-dichlorophenyl)pyrido[2,3-b]pyrazin-2-yl)-4-methylpiperidin-4-yl)methanamine] yielded an IC50 of 0.5 µM.
In the case of `COc1nc(N)cc(Sc2ccc3nc(N4CCC5(CC4)Cc4ccccc4[C@H]5N)cnc3n2)c1Cl` [Example 171, (S)-1′-(6-((6-amino-3-chloro-2-methoxypyridin-4-yl)thio)pyrido[2,3-b]pyrazin-2-yl)-1,3-dihydrospiro[indene-2,4′-piperidin]-1-amine], the IC50 is reported as 0.056 µM.
Work on `C[C@@H]1OCC2(CCN(c3cnc4nc(Sc5ccncc5F)ccc4n3)CC2)[C@@H]1N` [Example 186, (3S,4S)-8-(6-((3-fluoropyridin-4-yl)thio)pyrido[2,3-b]pyrazin-2-yl)-3-methyl-2-oxa-8-azaspiro[4.5]decan-4-amine] yielded an IC50 of 2.31 µM.
Compound `COc1cccc(-c2ccc3nc(N4CCC(C)(N)CC4)cnc3n2)c1Cl` [Example 37, 1-(6-(2-chloro-3-methoxyphenyl)pyrido[2,3-b]pyrazin-2-yl)-4-methylpiperidin-4-amine] has an IC50 of 1.1 µM.
`Nc1nccc(Sc2ccc3nc(N4CCC(N)(CCO)CC4)cnc3n2)c1Cl` [Example 128, 2-(4-amino-1-(6-((2-amino-3-chloropyridin-4-yl)thio)pyrido[2,3-b]pyrazin-2-yl)piperidin-4-yl)ethan-1-ol] was tested, and the IC50 was 0.1 µM.
Work on `N#Cc1ccc2c(c1)[C@H](N)C1(CCN(c3cnc4nc(Sc5ccnc(N)c5Cl)ccc4n3)CC1)C2` [Example 111, (R)-1-amino-1′-(6-((2-amino-3-chloropyridin-4-yl)thio)pyrido[2,3-b]pyrazin-2-yl)-1,3-dihydrospiro[indene-2,4′-piperidine]-6-carbonitrile] yielded an IC50 of 0.034 µM.
Compound `Cc1nccc(Sc2ccc3nc(N4CCC[C@](C)(N)CC4)cnc3n2)c1Cl` (single isomer, unassigned) [Example 151] has an IC50 of 0.076 µM.
With `COCCC1(N)CCN(c2cnc3nc(Sc4ccnc(N)c4Cl)ccc3n2)CC1` [Example 182, 4-((2-(4-amino-4-(2-methoxyethyl)piperidin-1-yl)pyrido[2,3-b]pyrazin-6-yl)thio)-3-chloropyridin-2-amine] the IC50 was 0.08 µM.
`C[C@@H]1OCC2(CCN(c3cnc4nc(Sc5ccnc(C(F)(F)F)c5)ccc4n3)CC2)[C@@H]1N` [Example 190, (3S,4S)-3-methyl-8-(6-((2-(trifluoromethyl)pyridin-4-yl)thio)pyrido[2,3-b]pyrazin-2-yl)-2-oxa-8-azaspiro[4.5]decan-4-amine] showed an IC50 of 3.65 µM.
With `Nc1nccc(Sc2ccc3nc(N4C[C@H]5C[C@@H](C4)[C@H]5N)cnc3n2)c1Cl` [Example 137] the IC50 [1] was 0.064 µM.
`COCCCNc1nccc(Sc2ccc3nc(N4CCC(C)(N)CC4)cnc3n2)c1Cl` [Example 195, 4-((2-(4-amino-4-methylpiperidin-1-yl)pyrido[2,3-b]pyrazin-6-yl)thio)-3-chloro-N-(3-methoxypropyl)pyridin-2-amine] gave an IC50 of 0.506 µM.
Compound `CC1(N)CCN(c2cnc3nc(-c4cccc5ccccc45)ccc3n2)CC1` [Example 38, 4-methyl-1-(6-(naphthalen-1-yl)pyrido[2,3-b]pyrazin-2-yl)piperidin-4-amine] has an IC50 [1] of 0.29 µM.
`Cc1nc(Cl)ccc1Sc1ccc2nc(N3CCC(C)(N)CC3)cnc2n1` [Example 96, 1-(6-((6-chloro-2-methylpyridin-3-yl)thio)pyrido[2,3-b]pyrazin-2-yl)-4-methylpiperidin-4-amine] was tested, and the IC50 was 0.503 µM.
Work on `NCC1CN(c2cnc3nc(-c4cccc(Cl)c4Cl)ccc3n2)CCO1` (centres unmarked) [Example 64, (4-(6-(2,3-dichlorophenyl)pyrido[2,3-b]pyrazin-2-yl)morpholin-2-yl)methanamine] yielded an IC50 of 0.73 µM.
For `C[C@@]1(N)CCCN(c2cnc3nc(Sc4ccnc(N)c4Cl)ccc3n2)CC1` (single isomer, unassigned) [Example 74], the IC50 was 0.042 µM.
`NCC1CCN(c2cnc3nc(-c4cccc(Cl)c4Cl)ccc3n2)C1` (centres unmarked) [Example 28, (1-(6-(2,3-dichlorophenyl)pyrido[2,3-b]pyrazin-2-yl)pyrrolidin-3-yl)methanamine] gave an IC50 of 0.83 µM.
Compound `N#Cc1ccc2c(c1)[C@@H](N)C1(CCN(c3cnc4nc(Sc5ccnc(N)c5Cl)ccc4n3)CC1)C2` (single isomer, unassigned) [Example 112] has an IC50 of 0.033 µM.
For `Nc1nccc(Sc2ccc3nc(N4CCC5(CC4)c4ccccc4[C@@H]5N)cnc3n2)c1Cl` [Example 166, (R)-1′-(6-((2-amino-3-chloropyridin-4-yl)thio)pyrido[2,3-b]pyrazin-2-yl)spiro[bicyclo[4.2.0]octane-7,4′-piperidine]-1(6),2,4-trien-8-amine], the IC50 was 3.99 µM.
Compound `Cc1ccc2c(n1)CC1(CCN(c3cnc4nc(Sc5ccnc(N)c5Cl)ccc4n3)CC1)[C@@H]2N` [Example 114, (S)-1′-(6-((2-amino-3-chloropyridin-4-yl)thio)pyrido[2,3-b]pyrazin-2-yl)-2-methyl-5,7-dihydrospiro[cyclopenta[b]pyridine-6,4′-piperidin]-5-amine] has an IC50 [1] of 0.04 µM.
Work on `CC1(N)CCN(c2cnc3nc(-c4cccc(F)c4Cl)ccc3n2)CC1` [Example 152, 1-(6-(2-chloro-3-fluorophenyl)pyrido[2,3-b]pyrazin-2-yl)-4-methylpiperidin-4-amine] yielded an IC50 of 0.03 µM.
